# pIC50: −log10 of the molar value. Read-outs that look alike come from different tables or passages of the source.
# Assays:
# [1] = molecular target: Recombinant His-tagged human PARG protein (Homo sapiens (Human), UniProt Q86W56); assay: PARG enzymatic assay (TFMU-ADPr fluorescence); assay type: biochemical; details: 1 nM enzyme, 200 μM TFMU-ADPr, read after 30 minutes
# In short: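 Sf21-expressed His-tagged human PARG (1 nM) preincubated 15 min with compound (8-point series, 0.5% DMSO) in pH 7.4 phosphate/KCl/β-mercaptoethanol buffer, then 200 μM TFMU-ADPr added. Fluorescence (ex 380/em 535 nm) read after 30 min; IC50 from 4-parameter logistic fit, no-enzyme control as bottom.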
# [2] = test system: TOV-112D endometrioid adenocarcinoma ovarian cancer cell line; assay: Cell proliferation assay (CellTiter-Glo), TOV-112D; assay type: cell-based; details: 96-well, 5000 cells per well, 120 hours, highest concentration tested 9000 nM, off-target readout, read-out: TOV-112D GI50 (low PARG dependency)
# Method: For Examples 1-11, RMUG-S mucinous cystadenocarcinoma (JCRB, #IF050320) and TOV-112D endometrioid adenocarcinoma (ATCC, #CRL-11731) ovarian cancer cell lines were grown in DMEM/F-12 with glutamine (BioConcept, #1-26F09-I) and RPMI with glutamine (BioConcept, #1-41F03-1), respectively, and both media containing 10% FBS (Sigma-Aldrich, #F9665) and supplemented with 1% Penicillin-Streptomycin (BioConcept, #4-01F00-H) using standard cell culture techniques. RMUG-S and TOV-112D ovarian cancer cell lines were selected as highly PARG dependent and having low PARG dependency, respectively, based on their publically available PARG shRNA (short hairpin ribonucleic acid) dropout profiles in the Cancer Dependency Map (DepMap) data portal (Broad Institute DepMap Project; Cheung H W et al, Proceedings of the National Academy of Sciences 2011; Cowley G S et al, Scientific Data 2014; McDonald E R et al, Cell 2017). PARG dependency of these cell lines was independently verified and confirmed by genetic and pharmacological means using shRNA-mediated PARG depletion, and the previously reported cell-permeable quinazolinedione PARG inhibitor tool compound PDD00017273 (Pillay N et al, Cancer Cell 2019). Thus, growth inhibition of the RMUG-S cell line serves as a functional on-target inhibition readout, while observing potent growth inhibition of TOV-112D is indicative of compound off-target activity. Cells were seeded in 96-well plates with clear bottom (Huberlab, #7.655 090) at a seeding density of 5000 cells per well in 100 μL of medium, and the plates were incubated overnight at 37° C. with 5% CO2 prior to treatment with compounds. Experimental compounds were prepared in DMSO at a concentration of 10 mM. Compounds were distributed at the desired final concentrations using the Tecan D300e Digital Dispenser (TECAN) and normalized to the highest DMSO volume. The plates were incubated for 120 hours and cell numbers were then measured using CellTiter-Glo® (Promega, #G9241), essentially as recommended by the manufacturer. Briefly, for the CellTiter-Glo® proliferation readout, 50 μL of the reconstituted CellTiter-Glo® 2.0 Reagent were added to 100 μL of medium containing cells. The plates were incubated at room temperature for 10 minutes to stabilize the luminescent signal, and luminescence intensity signals were then measured with a Synergy 4™ microplate reader (BioTek Instruments). Relative proliferation values were calculated by normalizing the raw data using DMSO-treated cells (100% proliferation) and the signals obtained from cells that were evaluated at the time of compound addition (0% proliferation). The concentration-response data were fitted to a sigmoidal 4-parameter logistic model with the maximum constrained to 100%. GI50 values were calculated from the curves as the compound concentrations reducing proliferation to 50%.
# Sequence of Recombinant His-tagged human PARG protein (Q86W56 whole entry): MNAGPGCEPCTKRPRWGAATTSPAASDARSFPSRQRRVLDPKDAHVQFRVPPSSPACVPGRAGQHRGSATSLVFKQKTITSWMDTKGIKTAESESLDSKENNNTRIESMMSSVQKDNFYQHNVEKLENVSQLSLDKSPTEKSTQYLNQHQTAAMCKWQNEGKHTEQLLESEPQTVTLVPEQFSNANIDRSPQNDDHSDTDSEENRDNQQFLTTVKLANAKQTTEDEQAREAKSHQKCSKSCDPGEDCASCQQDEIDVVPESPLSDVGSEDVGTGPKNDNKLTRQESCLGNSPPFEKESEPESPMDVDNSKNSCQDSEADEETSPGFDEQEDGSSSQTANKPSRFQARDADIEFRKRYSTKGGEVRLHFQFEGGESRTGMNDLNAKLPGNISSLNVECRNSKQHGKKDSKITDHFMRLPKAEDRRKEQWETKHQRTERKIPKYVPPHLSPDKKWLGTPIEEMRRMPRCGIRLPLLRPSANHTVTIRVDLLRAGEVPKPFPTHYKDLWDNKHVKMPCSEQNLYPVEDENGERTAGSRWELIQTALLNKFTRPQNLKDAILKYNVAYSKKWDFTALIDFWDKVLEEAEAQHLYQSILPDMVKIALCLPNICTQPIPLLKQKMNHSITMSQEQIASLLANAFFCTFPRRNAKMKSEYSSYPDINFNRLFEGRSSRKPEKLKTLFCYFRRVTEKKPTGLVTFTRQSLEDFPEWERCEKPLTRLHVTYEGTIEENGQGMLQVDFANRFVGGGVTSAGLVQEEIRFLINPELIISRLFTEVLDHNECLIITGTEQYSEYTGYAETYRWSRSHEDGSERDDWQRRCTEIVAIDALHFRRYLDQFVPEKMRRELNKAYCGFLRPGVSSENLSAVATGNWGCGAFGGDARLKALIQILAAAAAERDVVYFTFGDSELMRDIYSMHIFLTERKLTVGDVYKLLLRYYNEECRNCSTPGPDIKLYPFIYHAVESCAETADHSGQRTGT
structure (smiles),measurement,setting,value
"CO/N=c1\[nH]c2c(-c3ccc(C(=O)N(C)C)cc3)cc(S(=O)(=O)NC3(C)CC3)cc2c(=O)n1Cc1cnn(C)c1 [Example 5, 4-[2-methoxyimino-6-[(1-methylcyclopropyl)sulfamoyl]-3-[(1-methylpyrazol-4-yl)methyl]-4-oxo-1H-quinazolin-8-yl]-N,N-dimethyl-benzamide]",pIC50,[1],> 7.52
same,GI50,"[2]; Homo sapiens, TOV112D",≥ 9000 nM
"CO/N=c1\[nH]c2ccc(S(=O)(=O)NC3(C)CC3)cc2c(=O)n1Cc1cnc(C)s1 [Example 1, 2-methoxyimino-N-(1-methylcyclopropyl)-3-[(2-methylthiazol-5-yl)methyl]-4-oxo-1H-quinazoline-6-sulfonamide]",pIC50,[1],> 7.52
same,GI50,"[2]; Homo sapiens, TOV112D",≥ 9000 nM
"Cc1nc(C)c(CO/N=c2\[nH]c3ccc(S(=O)(=O)NC4(C)CC4)cc3c(=O)n2Cc2cnn(C)c2)s1 [Example 3, 2-[(2,4-dimethylthiazol-5-yl)methoxyimino]-N-(1-methylcyclopropyl)-3-[(1-methylpyrazol-4-yl)methyl]-4-oxo-1H-quinazoline-6-sulfonamide]",pIC50,[1],> 7.52
same,GI50,"[2]; Homo sapiens, TOV112D",≥ 9000 nM
"CON=c1[nH]c2c(N3CCN(C(=O)C4(C)CC4)[C@H](C)C3)cc(S(=O)(=O)NC3(C)CC3)cc2c(=O)n1Cc1cnn(C)c1 [Example 8, 2-methoxyimino-N-(1-methylcyclopropyl)-3-[(1-methylpyrazol-4-yl)methyl]-4-oxo-8-[(3R)-3-methyl-4-(1-methylcyclopropanecarbonyl)piperazin-1-yl]-1H-quinazoline-6-sulfonamide]",pIC50,[1],> 7.52
same,GI50,[2],500 to 2000 nM
"CO/N=c1\[nH]c2c(N3CCN[C@H](C)C3)cc(S(=O)(=O)NC3(C)CC3)cc2c(=O)n1Cc1cnn(C)c1 [Example 7, 2-methoxyimino-N-(1-methylcyclopropyl)-3-[(1-methylpyrazol-4-yl)methyl]-4-oxo-8-[(3R)-3-methylpiperazin-1-yl]-1H-quinazoline-6-sulfonamide]",pIC50,[1],> 7.52
same,GI50,"[2]; Homo sapiens, TOV112D",≥ 9000 nM
"CO/N=c1\[nH]c2ccc(S(=O)(=O)NC3(C)COC3)cc2c(=O)n1Cc1cnn(C)c1 [Example 2, 2-methoxyimino-N-(3-methyloxetan-3-yl)-3-[(1-methylpyrazol-4-yl)methyl]-4-oxo-1H-quinazoline-6-sulfonamide]",pIC50,[1],7.00 to 7.52
same,GI50,"[2]; Homo sapiens, TOV112D",≥ 9000 nM

# Reference: patent publication US20260042754A1, “Substituted Bicyclic Heteroaryl Sulfonamide Derivatives for the Treatment of Cancer” (NODUS ONCOLOGY LIMITED, priority 2022, published 2026)
